Reference: paper PMC11875395, “Phenolic metabolism in Sarcandra glabra is mediated by distinct BAHD hydroxycinnamoyltransferases” (The Plant Journal, 2025)

How the values were obtained:
Experiment in all cases: HPLC product formation, Michaelis-Menten
Format in all cases: biochemical, Sarcandra glabra
SgRAS = test system: T1, SgRAS; conditions: 0.1 M potassium phosphate, exact conditions in Table S15
T1 construct: full length, 449 residues, 49348 Da
Text: HPLC product formation, Michaelis-Menten on SgRAS

SgHST = test system: T2, SgHST; conditions: 0.1 M potassium phosphate, exact conditions in Table S12
T2 construct: full length, 436 residues, 48424 Da
Text: HPLC product formation, Michaelis-Menten on SgHST

SgHQT2 = test system: T3, SgHQT2; conditions: 0.1 M potassium phosphate, exact conditions in Table S14
T3 construct: full length (5'-RACE), 441 residues, 48847 Da
Text: HPLC product formation, Michaelis-Menten on SgHQT2

SgHQT1 = test system: T4, SgHQT1; conditions: 0.1 M potassium phosphate, exact conditions in Table S13
T4 construct: full length, 427 residues, 47772 Da
Text: HPLC product formation, Michaelis-Menten on SgHQT1

[1] = with 4-hydroxyphenyllactic acid (pHPL)

`O=C(O)[C@H](O)Cc1ccc(O)c(O)c1` showed a Km (SgRAS; with p-coumaroyl-CoA) of 867 ± 105 µM.

In the case of `Nc1c(O)cccc1C(=O)O` [3‐Hydroxyanthranilic acid, 2‐amino‐3‐hydroxybenzoic], the Km (SgHST; with p-coumaroyl-CoA) is reported as 238 ± 19.6 µM.

Compound `O=C(O)C(O)Cc1ccc(O)cc1` (stereo not shown) [4‐hydroxyphenyllactic acid] has a Km (SgRAS; with p-coumaroyl-CoA) of 544 ± 47.4 µM.

In the case of `CC(C)(COP(=O)(O)OP(=O)(O)OC[C@H]1O[C@@H](n2cnc3c(N)ncnc32)[C@H](O)[C@@H]1OP(=O)(O)O)[C@@H](O)C(=O)NCCC(=O)NCCSC(=O)/C=C/c1ccc(O)c(O)c1` [Caffeoyl‐CoA], the Km (SgHQT2; with quinic acid) is reported as 213 ± 53.5 µM, the Km (SgHQT1; with quinic acid) is reported as 9.3 ± 2.5 µM and the Km (SgRAS; [1]) is reported as 57.2 ± 15.7 µM. For the same compound, the Km (SgHST; with shikimic acid) was 21.4 ± 6.8 µM.

`O=C(O)[C@]1(O)C[C@@H](O)[C@@H](O)[C@H](O)C1` [Quinic acid] was tested, and the Km (SgHQT2; with p-coumaroyl-CoA) was 11100 ± 1560 µM, the Km (SgHQT1; with p-coumaroyl-CoA) was 5520 ± 713 µM and the “K m (μM)” value (SgHST; with p-coumaroyl-CoA) was 16 740.0 ± 1833.0 μM.

In the case of `O=C(O)C1=C[C@@H](O)[C@@H](O)[C@H](O)C1` [Shikimic acid], the “K m (μM)” value (SgHQT1; with p-coumaroyl-CoA, n = 3 ± SD) is reported as 85 440.0 ± 18 700.0 μM and the Km (SgHST; with p-coumaroyl-CoA) is reported as 1220 ± 153 µM.

`CC(C)(COP(=O)(O)OP(=O)(O)OC[C@H]1O[C@@H](n2cnc3c(N)ncnc32)[C@H](O)[C@@H]1OP(=O)(O)O)[C@@H](O)C(=O)NCCC(=O)NCCSC(=O)/C=C/c1ccc(O)cc1` [p‐Coumaroyl‐CoA] was tested, and the Km (SgHQT2; with quinic acid) was 82.3 ± 14.8 µM, the Km (SgHQT1; with quinic acid) was 19.9 ± 3.4 µM and the Km (SgRAS; [1]) was 14.6 ± 1.7 µM. It also gave a Km (SgHST; with shikimic acid) of 17.4 ± 4.9 µM.
